Measured values as given in US12590063B2, “Phenol derivative” (Sumitomo Pharma Co., Ltd., priority 2020, dated 2026).
Marks after values point to notes of the source that are not given here.

How the values were obtained:
Crl:CD(SD) rats = test: Evaluation of taste aversion by drinking water; format: in vivo, rat; settings: two-bottle choice, overnight
Procedure: Test Example 3: Evaluation of Taste Aversion by Drinking Water
This test is for evaluating the taste aversion of drugs. The test was carried out by, while keeping Crl:CD(SD) rats (8 rats per group, 8 weeks old at the time of arrival) in home cages, adding the test substance solutions to water bottles. Two water bottles per cage were prepared, each filled with vehicle (sterile water containing 0.05% ethanol) and the test substance solution, and kept overnight, and the amount of water consumed during that period was measured. The proportion of water consumed with the test substance was calculated from the total amount of water consumed from the two water bottles, and the evaluation of taste aversion was carried out. It can be evaluated that the larger the proportion of water consumed with the test substance, the smaller the taste aversion and the smaller the stimulatory properties caused by the test substance.

normal rats [1] = test: Desensitization of effect of increasing swallowing in normal rats; format: in vivo, rat
Excerpt: Test Example 6: Evaluation with Respect to Desensitization of Effect of Increasing Swallowing in Normal Rats
TRPV1 agonists are known to induce TRPV1 desensitization when given at high doses or repeatedly. Using the same method as in Test Example 5, the effect of drugs on normal swallowing function in rats to induce desensitization was investigated. After the induction of anesthesia in Crl:CD(SD) male rats (7 to 8 rats per group, 8 to 9 weeks old, body weight 280 to 310 g: at the time of arrival), the animals were sheared under the jaw with clippers and held in a supine position on a heat pad kept at 37° C. to prevent limb movement. A sonde was inserted into the animals' mouths, and the tip of the sonde was retained in the pharynx. Under this condition, the test substance administration solution was administered at 12 ml/h for 10 seconds using an infusion pump, and the swallowing movements were measured for 30 seconds from the initiation of administration. Thereafter, the same test was performed about 5 minutes later, and the evaluation was repeated for a total of five times. Note that the vehicle used was saline solution containing 1% ethanol and 0.1% Tween 80.

normal rats [2] = test: Evaluation of effect of increasing swallowing in normal rats; format: in vivo, rat; settings: anesthetized normal rats; for number of swallowings, Average: pharyngeal infusion 12 ml/h for 10 seconds, counted for 30 seconds
Procedure: Test Example 5: Evaluation of Effect of Increasing Swallowing in Normal Rats
This test is for evaluating the effect of increasing swallowing function of drugs. It has been reported that induction of the swallowing reflex in normal rats using NaCl-containing water suppresses the number of swallows, and the increase in swallowing function was evaluated using a NaCl-containing solvent. After the induction of anesthesia in Crl:CD(SD) male rats (7 to 8 rats per group, 8 to 9 weeks old, body weight 280 to 310 g: at the time of arrival), the animals were sheared under the jaw with clippers and held in a supine position on a heat pad kept at 37° C. to prevent limb movement. A rat sonde was inserted into the animals' mouths, and the tip of the sonde was retained in the pharynx. Under this condition, the test substance administration solution was administered at 12 ml/h for 10 seconds using an infusion pump, and the swallowing movements were measured for 30 seconds from the initiation of administration. Note that the vehicle used was saline solution containing 1% ethanol and 0.1% Tween 80.

normal rats [3] = test: Test for eye stimulatory properties in normal rats; format: in vivo, rat; settings: for Number of eye-wiping (Average ± Standard deviation): 10 μL into the right eye, observed for 1 minute
Procedure: Test Example 7: Evaluation with Respect to Test for Eye Stimulatory Properties in Normal Rats
It has been reported that TRPV1 agonists have stimulatory properties and that administration of TRPV1 agonist solutions to the eye can induce wiping behavior. The stimulatory properties of the compounds were investigated using normal rats. Crl:CD(SD) male rats (5 rats per group, 8 weeks old, body weight 271 to 320 g) were held unanesthetized and 10 μL was dropped into the right eye using a micropipette.

[4] = Evaluation test for metabolic stability to S9; format: in vitro ADME; settings: liver S9 fraction, 37° C., 15 minutes, final compound concentration 10 nM
Procedure: Test Example 4: Evaluation Test for Metabolic Stability to S9
The compounds were added to a reaction solution in which the liver S9 fraction was diluted with phosphate buffer, and incubation was initiated at 37° C. (final compound concentration 10 nM, final volume 300 μL). After incubation for 15 minutes, the reaction was stopped by adding the reaction solution to acetonitrile, and centrifugation was carried out. After filtering the supernatant through a filter, the amount of compounds was determined using LC/MS/MS. From the amount of compounds obtained, the residual rate 15 minutes after the initiation of the reaction was calculated relative to the amount of compounds before the initiation of the reaction (0 minutes).

Human TRPV1 = target: T1, Human TRPV1 (Homo sapiens, UniProt Q8NER1); test: Evaluation of agonistic properties using human TRPV1 transiently expressing cells; format: cell-based; settings: for EC50: HEK293 cells transiently expressing human TRPV1 and apoaequorin, luminescence signal Rlu (Max-Min), read-out: TRPV1 EC50; for TRPV-1-agonistic activity (in words): evaluation test for TRPV-1-agonistic properties, summary of Tables 3 and 4
T1 construct: the TRPV1 gene (GenBank NP_542435.2) had been inserted; expressed in transfected cells; host or cells: HEK293 cells (cat #CCL-82.2, ATCC), transient transfection with pcDNA3.1
In short: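 HEK293 cells transiently co-expressing human TRPV1 and apoaequorin, loaded with 4.5 μM Viviren in HBSS/HEPES/0.1% BSA for 2 h at RT in the dark. Compound-evoked luminescence (465 nm) measured after addition; agonism expressed as Rlu (Max−Min).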

T1 sequence (Q8NER1 whole entry): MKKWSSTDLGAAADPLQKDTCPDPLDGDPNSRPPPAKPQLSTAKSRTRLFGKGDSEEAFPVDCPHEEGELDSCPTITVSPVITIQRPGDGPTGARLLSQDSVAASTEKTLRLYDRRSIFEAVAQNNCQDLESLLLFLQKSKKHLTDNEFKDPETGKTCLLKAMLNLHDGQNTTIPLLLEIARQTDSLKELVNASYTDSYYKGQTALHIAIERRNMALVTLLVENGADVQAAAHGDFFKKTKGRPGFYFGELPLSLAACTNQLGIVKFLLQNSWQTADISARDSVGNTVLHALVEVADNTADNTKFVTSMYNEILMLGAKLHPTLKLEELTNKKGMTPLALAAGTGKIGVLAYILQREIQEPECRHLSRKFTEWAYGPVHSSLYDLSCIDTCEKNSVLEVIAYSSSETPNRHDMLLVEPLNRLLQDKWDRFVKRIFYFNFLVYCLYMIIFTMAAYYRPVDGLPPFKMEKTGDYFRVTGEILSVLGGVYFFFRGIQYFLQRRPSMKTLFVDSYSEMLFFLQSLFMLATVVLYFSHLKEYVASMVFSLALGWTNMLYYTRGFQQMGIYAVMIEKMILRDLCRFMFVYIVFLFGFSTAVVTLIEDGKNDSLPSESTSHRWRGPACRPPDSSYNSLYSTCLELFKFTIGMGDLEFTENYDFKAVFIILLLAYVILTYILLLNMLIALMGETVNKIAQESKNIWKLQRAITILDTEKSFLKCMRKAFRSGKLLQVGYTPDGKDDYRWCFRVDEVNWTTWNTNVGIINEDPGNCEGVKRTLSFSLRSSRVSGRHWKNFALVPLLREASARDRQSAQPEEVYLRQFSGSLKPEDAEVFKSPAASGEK

proportion of water consumed with the test substance (% Vehicle) (Crl:CD(SD) rats; 1 μM in drinking water)	proportion of water consumed with the test substance (% Vehicle) (Crl:CD(SD) rats; 3 μM in drinking water)	Residual rate (%) [4] [%]	proportion of water consumed with the test substance (% Vehicle) (Crl:CD(SD) rats; 10 μM in drinking water)	EC50 (Human TRPV1) [nM]	TRPV-1-agonistic activity (in words) (Human TRPV1)	number of wiping behaviors versus control (Dunnett's test) (normal rats [3]; rat, in vivo)	SMILES	number of swallowings compared to the solvent administered group (Dunnett's test) (normal rats [2])	number of swallowings, Average (normal rats [2])	other results
94	80	1	71	4.5	stronger TRPV-1-agonistic activity	no significant difference	COc1cc(CC(=O)Nc2cccc([C@H]3CC[C@@H](OC(=O)C4CCCCC4)CC3)c2)ccc1O [Example 2, cis-4-{3-[2-(4-Hydroxy-3-methoxyphenyl)acetamido]phenyl}cyclohexyl cyclohexanecarboxylate]	significantly increased	17.8***	–
103	31	2	22	6.3	–	no significant difference	COc1cc(CC(=O)Nc2cccc([C@H]3CC[C@@H](OC(C)=O)CC3)c2)ccc1O [Example 12, cis-4-{3-[2-(4-hydroxy-3-methoxyphenyl)acetamido]phenyl}cyclohexyl acetate]	–	19.4**	–
90	66	<1	35	2.6	stronger TRPV-1-agonistic activity	no significant difference	COc1cc(CC(=O)Nc2cccc(-c3cccc(OC(=O)C(C)C)c3)n2)ccc1O [Example 1, 3-{6-[2-(4-Hydroxy-3-methoxyphenyl)acetamido]pyridin-2-yl}phenyl 2-methylpropanoate]	–	7.6	–

SMILES	proportion of water consumed with the test substance (% Vehicle) (Crl:CD(SD) rats; 1 μM in drinking water)	proportion of water consumed with the test substance (% Vehicle) (Crl:CD(SD) rats; 3 μM in drinking water)	Residual rate (%) [4] [%]	proportion of water consumed with the test substance (% Vehicle) (Crl:CD(SD) rats; 10 μM in drinking water)	EC50 (Human TRPV1) [nM]	TRPV-1-agonistic activity (in words) (Human TRPV1)	number of wiping behaviors versus control (Dunnett's test) (normal rats [3]; rat, in vivo)	number of swallowings compared to the solvent administered group (Dunnett's test) (normal rats [2])	number of swallowings, Average (normal rats [2])	other results
COc1cc(CNC(=O)CCCC/C=C/C(C)C)ccc1O [Capsaicin, capsaicin, reference compound]	13	9	–	–	–	–	–	significantly increased	14.1*	proportion of water consumed with the test substance (% Vehicle) (Crl:CD(SD) rats; 0.3 μM in drinking water): 71 % Vehicle; number of swallows, Average, First time (normal rats [1]; 10 μM, 1st of five administrations about 5 minutes apart): 18.2; number of swallows, Average, Second time (normal rats [1]; 10 μM, 2nd of five administrations about 5 minutes apart): 13.2; number of swallows, Average, Third time (normal rats [1]; 10 μM, 3rd of five administrations about 5 minutes apart): 14; number of swallows, Average, Fourth time (normal rats [1]; 10 μM, 4th of five administrations about 5 minutes apart): 9.7**; number of swallows, Average, Fifth time (normal rats [1]; 10 μM, 5th of five administrations about 5 minutes apart): 9.5**; number of swallows at repeated administrations compared to the 1st administration (Dunnett's test) (normal rats [1]; five administrations about 5 minutes apart): significantly reduced at the 4th and 5th administrations; Number of eye-wiping (Average ± Standard deviation) (normal rats [3]; 1 μM): 2.0 ± 2.3; Number of eye-wiping (Average ± Standard deviation) (normal rats [3]; 3 μM): 0.2 ± 0.4; Number of eye-wiping (Average ± Standard deviation) (normal rats [3]; 10 μM): 6.4 ± 6.3; Number of eye-wiping (Average ± Standard deviation) (normal rats [3]; 30 μM): 6.4 ± 4.4; Number of eye-wiping (Average ± Standard deviation) (normal rats [3]; 100 μM): 21.4 ± 9.7; number of wiping behaviors versus control (Dunnett's test) (normal rats [3]; eye drop in unanesthetized rats): significantly increased the number of wiping behaviors at concentrations of 30 μM and more
